Experimental findings from patent US10793568B2, “Hormone receptor modulators for treating metabolic conditions and disorders” (ARDELYX, INC., priority 2016, dated 2020) are described below.

Test [1] concerns the target ligand binding domain of human FXR (Homo sapiens (Human), UniProt Q96RI1). The test can be described thus: FXR ligand binding assay (LanthaScreen TR-FRET, SRC2-2 peptide recruitment). The following applies: for pEC50: -log EC50, concentration required to produce 50% activation; for Emax: extent of activation relative to GW4064, read-out: % Efficacy. As for the experimental part: The affinity of FXR ligands for the ligand binding domain of FXR was determined using a commercially available human FXR ligand binding assay (LanthaScreen, Thermofisher Cat # PV4833). […] Binding of FXR ligands to the FXR ligand binding domain promotes binding of the fluorescein-labelled SRC2-2 peptide. This causes a FRET signal between the terbium-labelled anti-GST antibody and the fluorescein-labelled SRC peptide which are both bound to the FXR ligand binding domain.
Test compounds are dissolved in DMSO and a 3-fold serial dilution series is generated, then further diluted into assay buffer. The compounds are mixed with 5 nM GST-tagged FXR ligand binding domain, 5 nM Tb-labelled anti-GST antibody and 500 nM fluorescein-labelled SRC2-2 peptide in a pH7.4 buffer. The reaction is incubated at room temperature for 1 hour, then the FRET signal is measured as the ratio of the 520 nm/495 nm emission following excitation at 340 nm. The change in FRET signal is plotted against the test article concentration and fit to a 3-parameter logistical equation. The concentration required to produce 50% activation is expressed as pEC50 (−log EC50), and the extent of activation is expressed relative to GW4064 as % activation.

The target of test [2] is human Farnesoid X receptor ligand-binding domain/Gal4 DNA binding domain chimera (Homo sapiens (Human), UniProt Q96RI1). Description: Cell-based assay of FXR activation (FXR-UAS-bla HEK 293T beta-lactamase reporter). The following applies: cellular FXR beta-lactamase reporter assay; for Emax: HEK-293T, extent of activation relative to GW4064, read-out: % Efficacy; for EC50: FXR-UAS-bla HEK 293T cells, 16 h, pEC50 = -log EC50. On the procedure:
FXR activation was measured using a cell line and procedure obtained from Life Technologies (Cat # K1691). FXR-UAS-bla HEK 293T cells contain a human Farnesoid X receptor ligand-binding domain/Gal4 DNA binding domain chimera stably integrated into the CellSensor® UAS-bla HEK 293T cell line. The CellSensor® UAS-bla HEK 293T contains a beta-lactamase reporter gene under control of a UAS response element stably integrated into HEK 293T cells. Activation of FXR by bound ligands results in transcriptional activation of the beta-lactamase reporter gene, which is detected via assay of beta-lactamase activity.
Cells are harvested and diluted into assay medium containing phenol red-free DMEM supplemented with 2% Charcoal-stripped FBS, pyruvate, non-essential amino acids. Cells are then transferred to a 384 well assay plate. Test compounds are dissolved in DMSO and a 3-fold serial dilution series is generated, then further diluted into assay medium. Compounds in assay medium are added to cells in the 384 well plate and allowed to incubate 16 h at 37 C in the presence of 5% CO2.
A FRET-based […] is loaded into cells as its acetomethoxy ester. Intracellular esterases liberate free CCF4, a cephalosporin core linking 7-hydroxycoumarin to fluorescein. In the presence of beta-lactamase activity produced in the presence of FXR agonists, cleavage of CCF4 spatially separates the two dyes and disrupts FRET, so that exciting the coumarin at 409 nm now produces a blue fluorescence signal at 447 nm. The change in FRET signal is plotted against the test compound concentration and fit to a 3-parameter logistical equation. The concentration required to produce 50% activation is expressed as pEC50 (−log EC50), and the extent of activation is expressed relative to GW4064 as % activation.
On the technique in general: A reporter such as luciferase makes a cellular process visible.

Chain of ligand binding domain of human FXR (Q96RI1 262-486): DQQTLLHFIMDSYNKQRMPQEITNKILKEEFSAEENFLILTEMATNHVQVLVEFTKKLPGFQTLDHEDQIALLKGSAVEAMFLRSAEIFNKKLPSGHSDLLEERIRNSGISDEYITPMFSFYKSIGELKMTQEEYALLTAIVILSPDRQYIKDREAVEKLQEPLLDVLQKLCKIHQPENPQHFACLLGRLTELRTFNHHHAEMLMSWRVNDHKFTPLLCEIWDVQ
Chain of human Farnesoid X receptor ligand-binding domain/Gal4 DNA binding domain chimera (Q96RI1 262-486, stated change not applied): as the sequence (Q96RI1 262-486) above
Chain of human Farnesoid X receptor ligand-binding domain/Gal4 DNA binding domain chimera (P04386 1-147 partner): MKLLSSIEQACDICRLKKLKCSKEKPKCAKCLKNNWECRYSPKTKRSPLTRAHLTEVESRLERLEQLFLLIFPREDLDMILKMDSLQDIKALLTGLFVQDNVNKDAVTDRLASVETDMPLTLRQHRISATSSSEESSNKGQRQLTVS

As a reminder, the pEC50 is the negative decadic logarithm of the EC50, by convention in mol/L. High values mean a small EC50, low ones a large EC50. Broadly, the EC50 is the concentration giving half of the maximal effect. For the molecule `O=C(O)[C@@H]1CCc2cc(N3C[C@@H]4C[C@H]3C[C@H]4OCc3c(-c4c(Cl)cccc4Cl)noc3C3CC3)ccc2C1` (single isomer, unassigned) [Compound I-137], in test [1], the pEC50 came out at 8 and the Emax turned out to be 132%. In test [2], the Emax was 106% and the EC50 was 10 nM.
For `O=C(O)[C@H]1CCc2cc(N3C[C@@H]4C[C@H]3C[C@H]4OCc3c(-c4c(Cl)cccc4Cl)noc3C3CC3)ccc2C1` (single isomer, unassigned) [Compound I-138], in that order: 7.6, 132%, 106% and 15.8 nM.
For `O=C(O)c1cc(F)c2nc(N3C[C@@H]4C[C@H]3C[C@H]4OC(=O)c3c(-c4c(Cl)cccc4Cl)noc3C3CC3)sc2c1` [Compound I-1, 2-[(1S,4S,5R)-5-[5-cyclopropyl-3-(2,6-dichlorophenyl)-1,2-oxazole-4-carbonyloxy]-2-azabicyclo[2.2.1]heptan-2-yl]-4-fluoro-1,3-benzothiazole-6-carboxylic Acid], in that order: 7.4, 148%, 126% and 10 nM.
On the same counts, the results for `O=C(O)c1ccc2nc(N3C[C@@H]4C[C@H]3C[C@H]4OC(=O)c3c(-c4c(Cl)cccc4Cl)noc3C3CC3)sc2c1` [Compound I-2, 2-[(1S,4S,5R)-5-[5-cyclopropyl-3-(2,6-dichlorophenyl)-1,2-oxazole-4-carbonyloxy]-2-azabicyclo[2.2.1]heptan-2-yl]-1,3-benzothiazole-6-carboxylic acid] are 7.3, 138%, 120% and 10 nM.
With `C[C@@H]1[C@@H]2C[C@@H](C[C@H]2OCc2c(-c3c(Cl)cccc3Cl)noc2C2CC2)N1c1ccc(C(=O)O)c(F)c1` [Compound I-362, 4-[(1S,3R,4S,5R)-5-[[5-cyclopropyl-3-(2,6-dichlorophenyl)-1,2-oxazol-4-yl]methoxy]-3-methyl-2-azabicyclo[2.2.1]heptan-2-yl]-2-fluorobenzoic acid], in test [1], the pEC50 is reported as 7.2 and the Emax was found to be 72%.
On the same counts, the results for `C[C@@H]1[C@@H]2C[C@@H](C[C@H]2OCc2c(-c3c(Cl)cccc3Cl)noc2C2CC2)N1c1ccc(C(=O)O)cc1F` [Compound I-363, 4-[(1S,3R,4S,5R)-5-[[5-cyclopropyl-3-(2,6-dichlorophenyl)-1,2-oxazol-4-yl]methoxy]-3-methyl-2-azabicyclo[2.2.1]heptan-2-yl]-3-fluorobenzoic acid] are 7.1 and 61%.
For `C[C@H]1[C@H]2C[C@H](C[C@@H]2OCc2c(-c3c(Cl)cccc3Cl)noc2C2CC2)N1c1ccc(C(=O)O)cc1F` [Compound I-364, 4-[(1R,3S,4R,5S)-5-{[5-cyclopropyl-3-(2,6-dichlorophenyl)-1,2-oxazol-4-yl]methoxy}-3-methyl-2-azabicyclo[2.2.1]heptan-2-yl]-3-fluorobenzoic Acid], in that order: 6.3 and 47%.
On the same counts, the results for `CC[C@@H]1[C@@H]2C[C@@H](C[C@H]2OCc2c(-c3c(Cl)cccc3Cl)noc2C2CC2)N1c1ccc(C(=O)O)cc1` [Compound I-365, 4-[(1S,3R,4S,5R)-5-[[5-cyclopropyl-3-(2,6-dichlorophenyl)-1,2-oxazol-4-yl]methoxy]-3-ethyl-2-azabicyclo[2.2.1]heptan-2-yl]benzoic acid] are 6.4 and 67%.
Consider `CC[C@H]1[C@H]2C[C@H](C[C@@H]2OCc2c(-c3c(Cl)cccc3Cl)noc2C2CC2)N1c1ccc(C(=O)O)cc1` [Compound I-366, 4-[(1R,3S,4R,5S)-5-[[5-cyclopropyl-3-(2,6-dichlorophenyl)-1,2-oxazol-4-yl]methoxy]-3-ethyl-2-azabicyclo[2.2.1]heptan-2-yl]benzoic acid], for which, in test [1], the pEC50 is 6.2 and the Emax was 56%.
Regarding `C[C@@H]1[C@@H]2C[C@@H](C[C@H]2OCc2c(-c3c(Cl)cccc3Cl)noc2C2CC2)N1c1ccc(C(=O)O)nc1` [Compound I-367, 5-[(1S,3R,4S,5R)-5-[[5-cyclopropyl-3-(2,6-dichlorophenyl)-1,2-oxazol-4-yl]methoxy]-3-methyl-2-azabicyclo[2.2.1]heptan-2-yl]pyridine-2-carboxylic Acid], in test [1], the pEC50 is 6.4 and the Emax is 61%.
For `C[C@H]1[C@H]2C[C@H](C[C@@H]2OCc2c(-c3c(Cl)cccc3Cl)noc2C2CC2)N1c1ccc(C(=O)O)nc1` [Compound I-368, 5-[(1R,3S,4R,5S)-5-[[5-cyclopropyl-3-(2,6-dichlorophenyl)-1,2-oxazol-4-yl]methoxy]-3-methyl-2-azabicyclo[2.2.1]heptan-2-yl]pyridine-2-carboxylic acid], in that order: 5.8 and 22%.
On the same counts, the results for `C[C@@H]1[C@@H]2C[C@@H](C[C@H]2OCc2c(-c3c(Cl)cccc3Cl)noc2C2CC2)N1c1ccc(C(=O)O)cn1` [Compound I-369, 6-[(1S,3R,4S,5R)-5-[[5-cyclopropyl-3-(2,6-dichlorophenyl)-1,2-oxazol-4-yl]methoxy]-3-methyl-2-azabicyclo[2.2.1]heptan-2-yl]pyridine-3-carboxylic acid] are 6.8 and 50%.
On the same counts, the results for `C[C@H]1[C@H]2C[C@H](C[C@@H]2OCc2c(-c3c(Cl)cccc3Cl)noc2C2CC2)N1c1ccc(C(=O)O)cn1` [Compound I-370, 6-[(1R,3S,4R,5S)-5-[[5-cyclopropyl-3-(2,6-dichlorophenyl)-1,2-oxazol-4-yl]methoxy]-3-methyl-2-azabicyclo[2.2.1]heptan-2-yl]pyridine-3-carboxylic acid] are 4.5 and 79%.
Turning to `C[C@@H]1[C@@H]2C[C@@H](C[C@H]2OCc2c(-c3c(Cl)cccc3Cl)noc2C2CC2)N1c1ccc(C(=O)NS(=O)(=O)C2CCOCC2)nc1` [Compound I-371, 5-[(1S,3R,4S,5R)-5-[[5-cyclopropyl-3-(2,6-dichlorophenyl)-1,2-oxazol-4-yl]methoxy]-3-methyl-2-azabicyclo[2.2.1]heptan-2-yl]-N-(oxane-4-sulfonyl)pyridine-2-carboxamide], in test [1], the pEC50 worked out at 6.7 and the Emax was 57%.
For `C[C@H]1[C@H]2C[C@H](C[C@@H]2OCc2c(-c3c(Cl)cccc3Cl)noc2C2CC2)N1c1ccc(C(=O)NS(=O)(=O)C2CCOCC2)nc1` [Compound I-372, 5-[(1R,3S,4R,5S)-5-[[5-cyclopropyl-3-(2,6-dichlorophenyl)-1,2-oxazol-4-yl]methoxy]-3-methyl-2-azabicyclo[2.2.1]heptan-2-yl]-N-(oxane-4-sulfonyl)pyridine-2-carboxamide], in that order: 6.1 and 22%.
On the same counts, the results for `C[C@@H]1[C@@H]2C[C@@H](C[C@H]2OCc2c(-c3c(Cl)cccc3Cl)noc2C2CC2)N1c1ccc(C(=O)NS(=O)(=O)C2CCOCC2)cn1` [Compound I-373, 6-[(1S,3R,4S,5R)-5-[[5-cyclopropyl-3-(2,6-dichlorophenyl)-1,2-oxazol-4-yl]methoxy]-3-methyl-2-azabicyclo[2.2.1]heptan-2-yl]-N-(oxane-4-sulfonyl)pyridine-3-carboxamide] are 7.2 and 62%.
For `C[C@H]1[C@H]2C[C@H](C[C@@H]2OCc2c(-c3c(Cl)cccc3Cl)noc2C2CC2)N1c1ccc(C(=O)NS(=O)(=O)C2CCOCC2)cn1` [Compound I-374, 6-[(1R,3S,4R,5S)-5-[[5-cyclopropyl-3-(2,6-dichlorophenyl)-1,2-oxazol-4-yl]methoxy]-3-methyl-2-azabicyclo[2.2.1]heptan-2-yl]-N-(oxane-4-sulfonyl)pyridine-3-carboxamide], in that order: 6 and 48%.
